Source: PubChem BioAssay (NCI)
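48-hour exposure; five concentrations; linearly interpolated endpoints. GI50 marks 50% less growth. Definition used: TGI = concentration required for complete inhibition of growth.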

What was measured:
Test in all cases: NCI anticancer screen, dose series, 48 h
SW-620 colon = test system: SW-620 colon
NCI-H522 lung = test system: NCI-H522 lung
SF-268 CNS = test system: SF-268 CNS
BT-549 breast = test system: BT-549 breast
SN12C renal = test system: SN12C renal
HCT-116 colon = test system: HCT-116 colon
SNB-19 CNS = test system: SNB-19 CNS
HCC-2998 colon = test system: HCC-2998 colon

CN1CC(C(=O)NC2(C)OC3(O)C4CCCN4C(=O)C(Cc4ccccc4)N3C2=O)C=C2c3cccc4[nH]cc(c34)CC21 (stereo not given)
TGI (SW-620 colon): > 100 µM | TGI (NCI-H522 lung): 33.3 µM | TGI (SF-268 CNS): 29.6 µM | TGI (BT-549 breast): 43 µM | TGI (SN12C renal): 43.5 µM | TGI (HCT-116 colon): 48.7 µM | TGI (SNB-19 CNS): > 100 µM

C#Cc1cccc(Nc2ncnc3ccc(-c4cncc(NS(C)(=O)=O)c4)cc23)c1
GI50 (SW-620 colon): 2.36 µM | TGI (SW-620 colon): 6.31 µM | GI50 (NCI-H522 lung): 1.06 µM | TGI (NCI-H522 lung): 3.28 µM | GI50 (SF-268 CNS): 1.92 µM | TGI (SF-268 CNS): 11.5 µM | GI50 (BT-549 breast): 1.07 µM | TGI (BT-549 breast): 4.55 µM | GI50 (SN12C renal): 2.51 µM | TGI (SN12C renal): 19.7 µM | GI50 (HCC-2998 colon): 2.67 µM | TGI (HCC-2998 colon): 11.8 µM | GI50 (HCT-116 colon): 1.45 µM | TGI (HCT-116 colon): 3.29 µM | GI50 (SNB-19 CNS): 1.98 µM | TGI (SNB-19 CNS): 16.2 µM

C=C(C)[C@]12CC(C)C34OC(/C=C\C=C\CCCCCCCCC)(O[C@@H]1[C@@H]3[C@@H]1O[C@]1(CO)[C@@H](O)[C@]1(O)C(=O)C(C)=C[C@@H]41)O2 (stereo not given in full)
TGI (NCI-H522 lung): 30.7 µM | TGI (SF-268 CNS): 28.5 µM | TGI (BT-549 breast): 18.5 µM | TGI (SN12C renal): 7.86 µM | GI50 (HCC-2998 colon): < 0.0001 µM | TGI (HCT-116 colon): 21 µM | TGI (SNB-19 CNS): 30.5 µM

CCSc1nc(N)c2cnn(C)c2n1
GI50 (SW-620 colon): 34.2 µM | TGI (SW-620 colon): > 100 µM | GI50 (NCI-H522 lung): 62.9 µM | TGI (NCI-H522 lung): > 100 µM | GI50 (SF-268 CNS): 33 µM | TGI (SF-268 CNS): 85.1 µM | GI50 (BT-549 breast): 42.9 µM | TGI (BT-549 breast): > 100 µM | GI50 (SN12C renal): 48.9 µM | TGI (SN12C renal): > 100 µM | GI50 (HCC-2998 colon): 25.4 µM | TGI (HCC-2998 colon): 92.1 µM | GI50 (HCT-116 colon): 28.9 µM | TGI (HCT-116 colon): > 100 µM | GI50 (SNB-19 CNS): 58.4 µM | TGI (SNB-19 CNS): > 100 µM

CCc1nc(N)nc(N)c1-c1ccc([N+](=O)[O-])c(Cl)c1
TGI (SW-620 colon): > 100 µM | TGI (NCI-H522 lung): > 52.9 µM | TGI (SF-268 CNS): > 100 µM | TGI (BT-549 breast): > 100 µM | TGI (SN12C renal): > 100 µM | TGI (HCC-2998 colon): > 100 µM | TGI (HCT-116 colon): > 100 µM | TGI (SNB-19 CNS): > 100 µM

Cn1c(COC(=O)NCCN2CCOCC2)nc2c(N3CCOCC3)nc(-c3ccccc3)nc21
GI50 (SW-620 colon): 0.444 µM | TGI (SW-620 colon): 1.78 µM | GI50 (NCI-H522 lung): 0.424 µM | TGI (NCI-H522 lung): 2.02 µM | GI50 (SF-268 CNS): 1.38 µM | TGI (SF-268 CNS): 2.95 µM | GI50 (BT-549 breast): 1.08 µM | TGI (BT-549 breast): 2.71 µM | GI50 (SN12C renal): 1.03 µM | TGI (SN12C renal): 2.6 µM | GI50 (HCC-2998 colon): 1.62 µM | TGI (HCC-2998 colon): 3.41 µM | GI50 (HCT-116 colon): 0.397 µM | TGI (HCT-116 colon): 1.7 µM | GI50 (SNB-19 CNS): 1.57 µM | TGI (SNB-19 CNS): 3.31 µM

Cc1cc2c(cc1Cl)SC1=NN(C)C(c3ccccc3O)N1S2(=O)=O (stereo not given)
GI50 (SW-620 colon): 94.5 µM | TGI (SW-620 colon): > 100 µM | GI50 (NCI-H522 lung): > 100 µM | TGI (NCI-H522 lung): > 100 µM | GI50 (SF-268 CNS): 61.6 µM | TGI (SF-268 CNS): > 100 µM | GI50 (BT-549 breast): 95.2 µM | TGI (BT-549 breast): > 100 µM | GI50 (SN12C renal): 58.7 µM | TGI (SN12C renal): > 100 µM | GI50 (HCC-2998 colon): 65.5 µM | TGI (HCC-2998 colon): > 100 µM | GI50 (HCT-116 colon): 44.1 µM | TGI (HCT-116 colon): > 100 µM | GI50 (SNB-19 CNS): 86.7 µM | TGI (SNB-19 CNS): > 100 µM

CN1C(=O)C23CC4=CC=CC(O)C4N2C(=O)C1(CO)SS3 (stereo not given)
TGI (SW-620 colon): 0.634 µM | TGI (NCI-H522 lung): 0.338 µM | TGI (SF-268 CNS): 0.489 µM | TGI (BT-549 breast): 0.742 µM | TGI (SN12C renal): 0.139 µM | TGI (HCC-2998 colon): 0.351 µM | TGI (HCT-116 colon): 0.279 µM | TGI (SNB-19 CNS): 0.55 µM

CC1(C)CC2(C)OC2C2(C1)N=NC(=Nc1ccccc1)O2 (stereo not given)
GI50 (SW-620 colon): 2.35 µM | TGI (SW-620 colon): 9.28 µM | GI50 (NCI-H522 lung): 1.61 µM | TGI (NCI-H522 lung): 3.33 µM | GI50 (SF-268 CNS): 4.9 µM | TGI (SF-268 CNS): 19.1 µM | GI50 (BT-549 breast): 2.22 µM | TGI (BT-549 breast): 4.99 µM | GI50 (SN12C renal): 2.48 µM | TGI (SN12C renal): 8.33 µM | GI50 (HCC-2998 colon): 13.2 µM | TGI (HCC-2998 colon): 26.6 µM | GI50 (HCT-116 colon): 1.29 µM | TGI (HCT-116 colon): 6.45 µM | GI50 (SNB-19 CNS): 14.1 µM | TGI (SNB-19 CNS): 28 µM
